Holding throughout (format): cell-based
Data set [1] is described as follows: Cell viability measurement (MTS), Vero cells. The following applies: monkey. As to the method:
(§1) Experimental Example 3: Cell Viability Measurement
(§2) Vero cell line (VERO01WCB-1201, Ministry of Food and Drug Safety, Republic of Korea), Calu-3 cell line (KCLB #30055, Korea Cell Line Bank (KCLB), Republic of Korea), CellTiter 96® AQueous One Solution Cell Proliferation Assay kit (Promega, cat. #G3582), and Infinite M200 microplate reader (Tecan).
Vero cells were cultured at 37 °C and 5% CO2 in DMEM medium supplemented with 10% fetal bovine serum, 100 units/mL penicillin, and 100 μg/mL streptomycin.
(§3) Vero cells or Calu-3 cells were seeded in 96-well microplates and cultured for 24 hours until the cell confluency reached 20%. After the incubation, compounds were treated in DMSO at concentrations (1, 3, and 10 μM) to reach 0.5% v/v in each well, and reacted at 37 °C for 48 hours. Into each well of the incubated 96-well microplate, 3-(4,5-dimethylthiazol-2-yl)-5-(3-carboxymethoxyphenyl)-2-(4-sulfophenyl)-2H-tetrazolium salt (MTS) assay solution [CellTiter 96® AQueous One Solution Cell Proliferation Assay kit (Promega)] mixed with DMEM medium at a ratio of 1:5, was dispensed at 100 μL/well and incubated at 37 °C for 1 hour. The 490 nm and 690 nm absorbance was then measured using an Infinite M200 instrument.
(§4) The cell viability (also, referred to as cell survival rate) (%) by compound treatment was calculated using the following analysis method. The 690 nm background absorbance value was subtracted from the measured 490 nm absorbance value. Then, to obtain the cell viability of each test group, the viability of the DMSO-treated group that was not treated with the compound was set to 100% and then the relative viability 1 of each compound was calculated. Two to six repeated tests were performed to obtain the results, and the mean values of the results were categorized into the following ranges and shown in Table 5 below (A: 80% survived, B: 50-80% survived, N/A: not tested)

Data set [2] has as its system Severe Acute Respiratory Syndrome Coronavirus Type 2. As to the kind of experiment: microbe, parasite or virus in culture. Conditions: Calu-3, 10 uM, read-out: Virus replication inhibition efficacy.
Data set [3] in a line: Cell viability measurement (MTS), Calu-3 cells. The following applies: human. Here is the method:
as §1, §2
Calu-3 cells were cultured at 37 °C and 5% CO2 in MEM medium supplemented with 10% fetal bovine serum, 2.2 g/L sodium bicarbonate, 1% 100 units/mL penicillin, and 100 μg/mL streptomycin.
as §3, §4

[4] abbreviates: virus strain NCCP-43344, 48 hours.
Setting [5] is: virus strain NCCP-43388, 48 hours.

Where two headings read alike, the source gives them in different places.

In data set [1], `FC(F)(F)c1ccc2nc(-c3cccc(Nc4ccc(-c5ccccc5)nn4)c3)[nH]c2c1` [Example 1, 6-phenyl-N-(3-(6-(trifluoromethyl)-1H-benzo[d]imidazol-2-yl)phenyl)pyridazin-3-amine] came in with a viability at 48 h, 1 µM of over 80% and a viability at 48 h, 3 µM of over 80%.

As to `CC(C)(C)c1ccc2nc(-c3cccc(Nc4ccc(-c5ccccc5)nn4)c3)[nH]c2c1` [Example 3, N-[3-(6-tert-butyl-1H-benzo[d]imidazol-2-yl)phenyl]-6-phenylpyridazin-3-amine], in data set [1], the viability at 48 h, 1 µM is over 80% and the viability at 48 h, 3 µM lay within 50 to 80%.

In data set [1], `Fc1cc2nc(-c3cccc(Nc4ccc(-c5ccccc5)nn4)c3)[nH]c2cc1Br` [Example 4, N-[3-(6-bromo-5-fluoro-1H-benzo[d]imidazol-2-yl)phenyl]-6-phenylpyridazin-3-amine] registered a viability at 48 h, 1 µM of over 80%; a viability at 48 h, 3 µM of over 80%; a viability at 48 h, 10 µM of 50 to 80%.

In data set [1], `FC(F)(F)Oc1ccc2nc(-c3cccc(Nc4ccc(-c5ccccc5)nn4)c3)[nH]c2c1` [Example 6, 6-phenyl-N-(3-(6-(trifluoromethoxy)-1H-benzo[d]imidazol-2-yl)phenyl)pyridazin-3-amine] came in with a viability at 48 h, 1 µM of over 80% and a viability at 48 h, 3 µM of 50 to 80%.

For `Clc1cc2nc(-c3cccc(Nc4ccc(-c5ccccc5)cn4)c3)[nH]c2cc1Cl` [Example 13, N-[3-(5,6-dichloro-1H-benzo[d]imidazol-2-yl)phenyl]-5-phenylpyridin-2-amine], in data set [2] (setting [4]), the inhibition at 10 µM was over 60%. In data set [1], this compound yielded a viability at 48 h, 1 µM of over 80%; a viability at 48 h, 3 µM of over 80%; a viability at 48 h, 10 µM of 50 to 80%.

`FC(F)(F)c1ccc2nc(-c3cccc(Nc4ncc(-c5ccccc5)cn4)c3)[nH]c2c1` [Example 14, 5-phenyl-N-(3-(6-(trifluoromethyl)-1H-benzo[d]imidazol-2-yl)phenyl)pyrimidin-2-amine] yielded a viability at 48 h, 1 µM in data set [1] of over 80%.

On to `Fc1cccc(-c2ccc(Nc3cccc(-c4nc5ccc(C(F)(F)F)cc5[nH]4)c3)nc2)c1` [Example 18, 5-(3-fluorophenyl)-N-(3-(6-(trifluoromethyl)-1H-benzo[d]imidazol-2-yl)phenyl)pyridin-2-amine], for which, in data set [1], the viability at 48 h, 1 µM is over 80% and the viability at 48 h, 10 µM is 50 to 80%.

On to `Fc1ccc2nc(-c3cccc(Nc4ccc(-c5cccnn5)cc4)c3)[nH]c2c1` [Example 25, 3-(6-fluoro-1H-benzo[d]imidazol-2-yl)-N-(4-(pyridazin-3-yl)phenyl)aniline], for which the inhibition at 10 µM in data set [2] (setting [4]) was over 60%. Moreover, in data set [1], the viability at 48 h, 1 µM was over 80%; the viability at 48 h, 3 µM is over 80%; the viability at 48 h, 10 µM was over 80%.

Compound `FC(F)(F)c1ccc2nc(-c3cccc(Nc4ccc(-c5cnccn5)cc4)c3)[nH]c2c1` [Example 29, N-[4-(pyrazin-2-yl)phenyl]-3-[6-(trifluoromethyl)-1H-benzo[d]imidazol-2-yl]aniline] yielded a viability at 48 h, 1 µM in data set [1] of over 80%.

As to `c1cc(Nc2ccc(-c3cncnc3)cc2)cc(-c2nc3ccccc3[nH]2)c1` [Example 30, 3-(1H-benzo[d]imidazol-2-yl)-N-(4-(pyrimidin-5-yl)phenyl)aniline], the inhibition at 10 µM in data set [2] (setting [5]) was over 60%. In data set [1], this compound showed a viability at 48 h, 1 µM of over 80% and a viability at 48 h, 3 µM of 50 to 80%. The same compound displayed a viability at 48 h, 1 µM in data set [3] of 50 to 80%.

In the case of `c1cncc(-c2ccc(Nc3cccc(-c4nc5ccccc5[nH]4)c3)cc2)c1` [Example 31, N-[3-(1H-benzo[d]imidazol-2-yl)phenyl]-4-(pyridin-3-yl)aniline], in data set [1], the viability at 48 h, 1 µM is over 80% and the viability at 48 h, 10 µM lay in the range of 50 to 80%. The compound further had a viability at 48 h, 1 µM in data set [3] of 50 to 80%.

`c1cc(Nc2ccc(-c3cnccn3)cc2)cc(-c2nc3ccccc3[nH]2)c1` [Example 32, 3-(1H-benzo[d]imidazol-2-yl)-N-(4-(pyrazin-2-yl)phenyl)aniline]: the inhibition at 10 µM in data set [2] (setting [5]) was over 60%. In data set [1], the viability at 48 h, 1 µM is over 80%; the viability at 48 h, 3 µM was over 80%; the viability at 48 h, 10 µM lay within 50 to 80%. Moreover, in data set [3], the viability at 48 h, 1 µM was over 80% and the viability at 48 h, 3 µM lay within 50 to 80%.

In data set [1], `Cc1cscc1-c1cnc(Nc2cccc(-c3nc4ccccc4[nH]3)c2)nc1` [Example 43, N-(3-(1H-benzo[d]imidazol-2-yl)phenyl)-5-(4-methylthiophen-3-yl)pyrimidin-2-amine] had a viability at 48 h, 1 µM of over 80% and a viability at 48 h, 10 µM of over 80%. In data set [3], this compound had a viability at 48 h, 1 µM of over 80% and a viability at 48 h, 3 µM of 50 to 80%.

As for `c1ccc(-c2cnc(Nc3cccc(-c4nc5ccccc5[nH]4)c3)nc2)nc1` [Example 44, N-(3-(1H-benzo[d]imidazol-2-yl)phenyl)-5-(pyridin-2-yl)pyrimidin-2-amine], the inhibition at 10 µM in data set [2] (setting [5]) was over 60%. In data set [3], the viability at 48 h, 1 µM is over 80% and the viability at 48 h, 3 µM was 50 to 80%.

`Fc1ccc2nc(-c3cccc(Nc4ncc(-c5ccccn5)cn4)c3)[nH]c2c1` [Example 45, N-[3-(6-fluoro-1H-benzo[d]imidazol-2-yl)phenyl]-5-(pyridin-2-yl)pyrimidin-2-amine]: the inhibition at 10 µM in data set [2] (setting [5]) was 30 to 60%. Further, in data set [1], the viability at 48 h, 3 µM was over 80% and the viability at 48 h, 10 µM fell in the range of 50 to 80%. This compound also came in with a viability at 48 h, 1 µM in data set [3] of 50 to 80%.

Consider `FC(F)(F)c1ccc2nc(-c3cccc(Nc4ncc(-c5cccnn5)cn4)c3)[nH]c2c1` [Example 52, 5-(pyridazin-3-yl)-N-(3-(6-(trifluoromethyl)-1H-benzo[d]imidazol-2-yl)phenyl)pyrimidin-2-amine], for which the viability at 48 h, 1 µM was over 80% in data set [1] and 50 to 80% in data set [3]. For the same compound, the viability at 48 h, 3 µM is over 80% in data set [1] and 50 to 80% in data set [3]. Further, the figures for the viability at 48 h, 10 µM in data set [1] and in data set [3] (10 μM) were over 80% and 50 to 80%, respectively.

In data set [1], `Fc1ccc2nc(-c3cccc(Nc4ccc(-c5cccnn5)cn4)c3)[nH]c2c1` [Example 55] had a viability at 48 h, 1 µM of over 80% and a viability at 48 h, 10 µM of 50 to 80%.

In data set [1], `c1cc(Nc2ccc(-c3cccnn3)cn2)cc(-c2nc3ccccc3[nH]2)c1` [Example 56, N-[3-(1H-benzo[d]imidazol-2-yl)phenyl]-5-(pyridazin-3-yl)pyridin-2-amine] yielded a viability at 48 h, 1 µM of over 80% and a viability at 48 h, 10 µM of over 80%. In data set [3], this compound showed a viability at 48 h, 1 µM of over 80% and a viability at 48 h, 3 µM of 50 to 80%.

In data set [1], `FC(F)(F)c1ccc2nc(-c3cccc(Nc4ccc(-c5ccccn5)cn4)c3)[nH]c2c1` [Example 57, N-{3-[6-(trifluoromethyl)-1H-benzo[d]imidazol-2-yl]phenyl}-[2,3′-bipyridin]-6′-amine] had a viability at 48 h, 1 µM of over 80%; a viability at 48 h, 3 µM of over 80%; a viability at 48 h, 10 µM of 50 to 80%. This compound also yielded a viability at 48 h, 1 µM in data set [3] of 50 to 80%.

Turning to `Fc1ccc2nc(-c3cccc(Nc4ccc(-c5ccccn5)cn4)c3)[nH]c2c1` [Example 58, N-(3-(6-fluoro-1H-benzo[d]imidazol-2-yl)phenyl)-[2,3′-bipyridine]-6′-amine], in data set [1], the viability at 48 h, 1 µM is over 80% and the viability at 48 h, 3 µM was over 80%. The viability at 48 h, 1 µM in data set [3] was 50 to 80%.

In data set [1], `c1ccc(-c2ccc(Nc3cccc(-c4nc5ccccc5[nH]4)c3)nc2)nc1` [Example 59, N-[3-(1H-benzo[d]imidazol-2-yl)phenyl]-[2,3′-bipyridin]-6′-amine] registered a viability at 48 h, 1 µM of over 80%. Besides, in data set [3], the viability at 48 h, 1 µM is over 80% and the viability at 48 h, 3 µM is 50 to 80%.

As for `COC(=O)c1ccc2nc(-c3cccc(Nc4ccc(-c5cccnn5)cc4)c3)[nH]c2c1` [Example 61, methyl 2-(3-((4-(pyridazin-3-yl)phenyl)amino)phenyl)-1H-benzo[d]imidazol-6-carboxylate], in data set [1], the viability at 48 h, 1 µM was over 80%.

`Fc1ccc2nc(-c3cccc(Nc4ccc(-c5ccncn5)cn4)c3)[nH]c2c1` [Example 72, N-(3-(6-fluoro-1H-benzo[d]imidazol-2-yl)phenyl)-5-(pyrimidin-4-yl)pyridin-2-amine]: the viability at 48 h, 3 µM in data set [1] is over 80%.

As to `Fc1cc2nc(-c3cccc(Nc4cnc(-c5ccccn5)cn4)c3)[nH]c2cc1F` [Example 298, N-(3-(5,6-difluoro-1H-benzo[d]imidazol-2-yl)phenyl)-5-(pyridin-2-yl)pyrazin-2-amine], in data set [2] (setting [5]), the inhibition at 10 µM is 30 to 60%.
